Data from PubChem BioAssay (NCI).
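Five compound concentrations were applied to cells in 96-well plates for 48 hours; endpoints were derived by simple linear interpolation of the resulting dose-response curve. TGI is the concentration that stops growth completely.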

Key:
Assay in all cases: NCI anticancer screen, dose series, 48 h
[1] = system: ACHN renal
[2] = system: HCC-2998 colon
[3] = system: HCT-116 colon
[4] = system: HCT-15 colon
[5] = system: HOP-62 NSCLC
[6] = system: HS 578T breast
[7] = system: M14 melanoma
[8] = system: OVCAR-5 ovarian
[9] = system: SF-268 CNS
[10] = system: SF-539 CNS
[11] = system: SN12C renal
[12] = system: SR leukemia
[13] = system: U251 CNS
[14] = system: UO-31 renal

| Structure (SMILES) | TGI [1] | TGI [2] | TGI [3] | TGI [4] | TGI [5] | TGI [6] | TGI [7] | TGI [8] | TGI [9] | TGI [10] | TGI [11] | TGI [12] | TGI [13] | TGI [14] |
| --- | --- | --- | --- | --- | --- | --- | --- | --- | --- | --- | --- | --- | --- | --- |
| Oc1c(N2CCCCC2)cc(-c2cc(N3CCCCC3)c(O)c3ccccc23)c2ccccc12 | > 100 µM | > 100 µM | 40.7 µM | > 100 µM | > 100 µM | 72.6 µM | 32 µM | > 100 µM | > 100 µM | 81.8 µM | > 100 µM | 16.2 µM | > 100 µM | > 100 µM |
| Cc1c(C)c2c(c(N)c1C#N)C(=O)N(Cc1ccc(S(N)(=O)=O)cc1)C2=O | > 63.4 µM | > 100 µM | > 92.5 µM | > 100 µM | 19.3 µM | > 100 µM | > 73.6 µM | > 87.9 µM | > 86.3 µM | > 60.1 µM | > 100 µM | > 100 µM | > 80.6 µM | > 100 µM |
| O=C(NCCN(CCNC(=O)c1cccc(O)c1O)CCNC(=O)c1cccc(O)c1O)c1cccc(O)c1O | > 67.7 µM | > 60.2 µM | > 100 µM | > 100 µM | > 91.6 µM | > 100 µM | > 100 µM | > 100 µM | > 100 µM | > 100 µM | > 100 µM | > 34.2 µM | > 89 µM | > 100 µM |
| C=C1CC[C@@H](CCC2CCC3(OC2)O[C@]2(O)CC[C@@]3(C)OC2(C)C)C(C)(C)[C@H]1C/C=C1\CCOC1=O (some centres undefined) | > 100 µM | > 53.3 µM | 22.5 µM | > 81.4 µM | > 100 µM | > 80.7 µM | > 100 µM | > 100 µM | > 100 µM | > 32.4 µM | 51.1 µM | > 52.2 µM | 43.5 µM | > 100 µM |
| CC(C)(C)OC(=O)N(CCCCNC(=O)C(F)(F)F)CCCNC(=O)C(F)(F)F | > 100 µM | > 100 µM | > 100 µM | > 100 µM | > 100 µM | > 100 µM | > 100 µM | > 100 µM | > 100 µM | > 100 µM | > 100 µM | > 100 µM | > 100 µM | > 100 µM |
| O=C(Nn1c(-c2ccccc2)nc2ccccc2c1=O)c1ccc(Cl)cc1 | > 100 µM | > 100 µM | > 100 µM | > 100 µM | > 100 µM | > 100 µM | > 100 µM | > 100 µM | > 100 µM | > 100 µM | > 100 µM | > 100 µM | > 100 µM | > 100 µM |
| COC(=O)c1c(C)cccc1/C=C1\Cc2ccc(C)c(C)c2C1=O | > 100 µM | > 100 µM | > 100 µM | > 100 µM | > 100 µM | > 100 µM | > 100 µM | > 100 µM | > 100 µM | > 100 µM | > 100 µM | > 100 µM | > 100 µM | > 100 µM |
| COC(=O)[C@@H]1[C@@H]2NC(=S)N[C@@]1(C)Oc1ccccc12 | > 100 µM | > 100 µM | > 100 µM | > 100 µM | > 100 µM | > 100 µM | > 100 µM | > 100 µM | > 100 µM | > 100 µM | > 100 µM | > 100 µM | > 100 µM | > 100 µM |
| CSC(=O)/C=C1\SS/C(=C\C(=O)SC)S1 | 10.2 µM | 3.33 µM | 3.29 µM | 6.07 µM | 20.4 µM | 13.8 µM | 5.24 µM | 13.7 µM | 6.72 µM | 6.93 µM | 3.79 µM | > 100 µM | 6.03 µM | 6.89 µM |
| Cc1c(C)c(S(=O)(=O)N(CCCCN)OCCCN)c(C)c2c1OC(C)(C)CC2 | 47.2 µM | 20.8 µM | 35.8 µM | 46.9 µM | 32.6 µM | 36.1 µM | 98.3 µM | 34.7 µM | 49.6 µM | 64.2 µM | > 100 µM | > 100 µM | > 100 µM | 43 µM |
| CC(=O)c1ccc(Nc2c3c(nc4ccccc24)CCCC3)cc1 | > 100 µM | > 100 µM | > 72 µM | > 100 µM | > 47.3 µM | > 88 µM | 41.7 µM | 97.9 µM | > 100 µM | > 100 µM | > 100 µM | 74.2 µM | > 59.2 µM | > 67.1 µM |
